One assay concerns the target T1, ErbB2 or EGFR.
T1 construct: enzymes purified from a baculovirus expression system; Reagent production was conducted essentially as described in Brignola, P. S., et al, (2002) J. Biol. Chem. 277(2): 1576-1585
In words: ErbB family substrate phosphorylation enzyme assay (HTRF), Method A or Method B. The class given is biochemical. A digest of the protocol:
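Baculovirus-expressed EGFR or ErbB2 (0.8 or 10 nM in enzyme mix) phosphorylates biotinylated Peptide C with 20 µM ATP and 0.8 µM peptide (substrate-mix levels), MnCl2, pH 7.5. Reaction ran 90 min at 20 °C with EDTA stop and HTRF anti-phosphotyrosine read. Method A: enzyme added last; Method B: 1 h enzyme–compound preincubation.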

The subject of assay [1] is BT474 and HN5 tumor cell lines. In words: Methylene blue growth inhibition assay (cellular Method A). It is filed as cell-based, Human. To be noted: Homo sapiens, BT-474, 72 h, 3 days, read-out: Activity (Method): growth inhibition IC50 class. A digest of the protocol: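 Growth inhibition measured by methylene blue staining of biomass (OD 620) after 3 days' compound exposure at 37° C, final DMSO 0.3%. Cell lines: BT474 (10,000/well), HN5 (3,000/well) and Colo205, all in DMEM with 10% FBS; IC50 fitted by nonlinear regression against vehicle-treated wells.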

Where [2] appears, read: Method B: enzyme mix pre-incubated with compound 1 hour at 20° C., started with substrate mix.
The mark [3] stands for this setting: Method A: substrate mix added first, reaction started with enzyme mix.

The values below come from patent US7812022B2 (GlaxoSmithKline LLC, priority 2004, dated 2010).

Some results are limits rather than exact numbers.

Turning to `O=C(Nc1cccc(-c2nn3ccccc3c2-c2ccnc(Nc3cccc(F)c3)n2)c1)c1ccccc1OC(F)(F)F` [Example 68, N-[3-(3-{2-[(3-fluorophenyl)amino]-4-pyrimidinyl}-pyrazolo[1,5-a]pyridin-2-yl)phenyl]-2-[(trifluoromethyl)oxy]benzamide], the “Activity (Method): pIC50 class against ErbB2 or EGFR” value (“Activity (Method): pIC50 class” below) at ErbB2 or EGFR (setting [2]) is given as “++ (B) (at least one pIC50 measurement greater than 6 against either ErbB2 or EGFR but no measurement greater than pIC50 of 7)”. For the same compound, the half-inhibitory concentration (IC50) in assay [1] was 100 to 1000 nM.

Consider `O=C(Nc1cccc(-c2nn3ccccc3c2-c2ccnc(Nc3cccc(F)c3)n2)c1)c1ccccc1C(F)(F)F` [Example 16, N-(3-{3-[2-(3-Fluoro-phenylamino)-pyrimidin-4-yl]-pyrazolo[1,5-a]pyridin-2-yl}-phenyl)-2-trifluoromethyl-benzamide], for which the “Activity (Method): pIC50 class” value at ErbB2 or EGFR (setting [2]) is listed as “+++ (B) (at least one pIC50 measurement of greater than 7 against either ErbB2 or EGFR)”. Also, in assay [1], the half-inhibitory concentration (IC50) was below 100 nM.

Consider `O=C(Nc1cccc(-c2nn3ccccc3c2-c2ccnc(Nc3ccccc3)n2)c1)c1c(F)cccc1F` [Example 34, 2,6-Difluoro-N-(3-{3-[2-(phenylamino)-4-pyrimidinyl]pyrazolo[1,5-a]pyridin-2-yl}phenyl)benzamide], for which the “Activity (Method): pIC50 class” value on ErbB2 or EGFR (setting [2]) was “+++ (B) (at least one pIC50 measurement of greater than 7 against either ErbB2 or EGFR)”. Besides, in assay [1], the IC50 was below 100 nM.

On to `O=C(Nc1cccc(-c2nn3ccccc3c2-c2ccnc(Nc3cccc(F)c3)n2)c1)c1ccsc1` [Example 81, N-[3-(3-{2-[(3-fluorophenyl)amino]-4-pyrimidinyl}pyrazolo[1,5-a]pyridin-2-yl)phenyl]-3-thiophenecarboxamide], for which the “Activity (Method): pIC50 class” value on ErbB2 or EGFR (setting [2]) is on record as “++ (B) (at least one pIC50 measurement greater than 6 against either ErbB2 or EGFR but no measurement greater than pIC50 of 7)”. In addition, the IC50 in assay [1] was 100 to 1000 nM.

Turning to `Cc1cccc(C(=O)Nc2cccc(-c3nn4ccccc4c3-c3ccnc(Nc4cccc(F)c4)n3)c2)c1` [Example 18, N-(3-{3-[2-(3-Fluoro-phenylamino)-pyrimidin-4-yl]-pyrazolo[1,5-a]pyridin-2-yl}-phenyl)-3-methyl-benzamide], on ErbB2 or EGFR (setting [2]), the “Activity (Method): pIC50 class” value was “++ (B) (at least one pIC50 measurement greater than 6 against either ErbB2 or EGFR but no measurement greater than pIC50 of 7)”. The IC50 in assay [1] was 100 to 1000 nM.

For `N#Cc1cc(Nc2nccc(-c3c(-c4cccc(NC(=O)c5c(F)cccc5F)c4)nn4ccccc34)n2)ccc1-n1cccc1` [Example 90], at ErbB2 or EGFR (setting [3]), the “Activity (Method): pIC50 class” value is reported as “++ (A) (at least one pIC50 measurement greater than 6 against either ErbB2 or EGFR but no measurement greater than pIC50 of 7)”. Besides, the half-maximal inhibitory concentration (IC50) in assay [1] is 100 to 1000 nM.

On to `O=C(Nc1cccc(-c2nn3ccccc3c2-c2ccnc(Nc3ccccc3)n2)c1)c1ccccn1` [Example 140], for which the “Activity (Method): pIC50 class” value on ErbB2 or EGFR (setting [3]) is “++ (A) (at least one pIC50 measurement greater than 6 against either ErbB2 or EGFR but no measurement greater than pIC50 of 7)”. The IC50 in assay [1] was in the range of 100 to 1000 nM.

With `O=C(Nc1cccc(-c2nn3c(C(F)(F)F)cccc3c2-c2ccnc(Nc3ccccc3)n2)c1)c1c(F)cccc1F` [Example 152, N-[3-(3-{2-[Phenylamino]-4-pyrimidinyl}-7-trifluoropyrazolo[1,5-b]pyridin-2-yl)phenyl]-2,6-difluorobenzamide], on ErbB2 or EGFR (setting [2]), the “Activity (Method): pIC50 class” value is “++ (B) (at least one pIC50 measurement greater than 6 against either ErbB2 or EGFR but no measurement greater than pIC50 of 7)”. Also, the IC50 in assay [1] is 100 to 1000 nM.

For the compound `O=C(Nc1cccc(-c2nn3ccccc3c2-c2ccnc(Nc3cccc(F)c3)n2)c1)c1ccc(Cl)nc1` [Example 74, 6-Chloro-N-[3-(3-{2-[(3-fluorophenyl)amino]-4-pyrimidinyl}pyrazolo[1,5-a]pyridin-2-yl)phenyl]-3-pyridinecarboxamide], the “Activity (Method): pIC50 class” value at ErbB2 or EGFR (setting [2]) was “++ (B) (at least one pIC50 measurement greater than 6 against either ErbB2 or EGFR but no measurement greater than pIC50 of 7)”. Moreover, the IC50 in assay [1] is 100 to 1000 nM.

Take `CN(CCCOc1ccc(N)cc1F)c1nccc(-c2c(-c3cccc(NC(=O)c4c(F)cccc4F)c3)nn3ccccc23)n1` [Example 130, N-[3-(3-{2-[{3-[(4-Amino-2-fluorophenyl)oxy]propyl}(methyl)amino]-4-pyrimidinyl}pyrazolo[1,5-a]pyridin-2-yl)phenyl]-2,6-difluorobenzamide]: the “Activity (Method): pIC50 class” value on ErbB2 or EGFR (setting [3]) is “++ (A) (at least one pIC50 measurement greater than 6 against either ErbB2 or EGFR but no measurement greater than pIC50 of 7)”. Moreover, the IC50 in assay [1] was above 1000 nM.

Turning to `COc1ccccc1C(=O)Nc1cccc(-c2nn3ccccc3c2-c2ccnc(Nc3cccc(F)c3)n2)c1` [Example 69, N-[3-(3-{2-[(3-fluorophenyl)amino]-4-pyrimidinyl}pyrazolo[1,5-a]pyridin-2-yl)phenyl]-2-(methyloxy)benzamide], at ErbB2 or EGFR (setting [2]), the “Activity (Method): pIC50 class” value was “+++ (B) (at least one pIC50 measurement of greater than 7 against either ErbB2 or EGFR)”. Besides, the half-maximal inhibitory concentration (IC50) in assay [1] was in the range of 100 to 1000 nM.

Turning to `O=C(Nc1cccc(-c2nn3ccccc3c2-c2ccnc(Nc3ccc(Cl)c(C(F)(F)F)c3)n2)c1)c1c(F)cccc1F` [Example 89], at ErbB2 or EGFR (setting [3]), the “Activity (Method): pIC50 class” value is on record as “++ (A) (at least one pIC50 measurement greater than 6 against either ErbB2 or EGFR but no measurement greater than pIC50 of 7)”. The IC50 in assay [1] was 100 to 1000 nM.

As to `Cc1ccc(Nc2nccc(-c3c(-c4cccc(NC(=O)c5cc(F)ccc5F)c4)nn4ccccc34)n2)cc1S(N)(=O)=O` [Example 52, N-{3-[3-(2-{[3-(Aminosulfonyl)-4-methylphenyl]amino}-4-pyrimidinyl)pyrazolo[1,5-a]pyridin-2-yl]phenyl}-2,5-difluorobenzamide], the “Activity (Method): pIC50 class” value on ErbB2 or EGFR (setting [3]) is listed as “+++ (A) (at least one pIC50 measurement of greater than 7 against either ErbB2 or EGFR)”. In assay [1], the IC50 fell in the range of 100 to 1000 nM.

Regarding `O=C(Nc1cccc(-c2nn3ccccc3c2-c2ccnc(Nc3cccc(F)c3)n2)c1)c1cc(F)ccc1F` [Example 39, 2,5-Difluoro-N-[3-(3-{2-[(3-fluorophenyl)amino]-4-pyrimidinyl}pyrazolo[1,5-a]pyridin-2-yl)phenyl]benzamide], the “Activity (Method): pIC50 class” value on ErbB2 or EGFR (setting [2]) was “+++ (B) (at least one pIC50 measurement of greater than 7 against either ErbB2 or EGFR)”. For the same compound, in assay [1], the IC50 was in the range of 100 to 1000 nM.

Turning to `O=C(Nc1cccc(-c2nn3ccccc3c2-c2ccnc(Nc3cccc(F)c3)n2)c1)c1ccc(F)cc1Cl` [Example 20, 2-Chloro-4-fluoro-N-(3-{3-[2-(3-fluoro-phenylamino)-pyrimidin-4-yl]-pyrazolo[1,5-a]pyridin-2-yl}-phenyl)-benzamide], the “Activity (Method): pIC50 class” value at ErbB2 or EGFR (setting [2]) is recorded as “++ (B) (at least one pIC50 measurement greater than 6 against either ErbB2 or EGFR but no measurement greater than pIC50 of 7)”. Moreover, the IC50 in assay [1] was in the range of 100 to 1000 nM.

`O=C(Nc1cccc(-c2nn3ccccc3c2-c2ccnc(Nc3cccc(F)c3)n2)c1)c1ccncc1` [Example 75, N-[3-(3-{2-[(3-Fluorophenyl)amino]-4-pyrimidinyl}pyrazolo[1,5-a]pyrindin-2-yl)phenyl]-4-pyridinecarboxamide]: the “Activity (Method): pIC50 class” value on ErbB2 or EGFR (setting [2]) is on record as “+++ (B) (at least one pIC50 measurement of greater than 7 against either ErbB2 or EGFR)”. For the same compound, the half-maximal inhibitory concentration (IC50) in assay [1] was in the range of 100 to 1000 nM.

For `O=C(Nc1cccc(-c2nn3ccccc3c2-c2ccnc(Nc3cccc(F)c3)n2)c1)c1ccno1` [Example 67, N-[3-(3-{2-[(3-fluorophenyl)amino]-4-pyrimidinyl}pyrazolo[1,5-a]pyridin-2-yl)phenyl]-5-isoxazolecarboxamide], at ErbB2 or EGFR (setting [2]), the “Activity (Method): pIC50 class” value was “+++ (B) (at least one pIC50 measurement of greater than 7 against either ErbB2 or EGFR)”. Moreover, the 50% inhibitory concentration (IC50) in assay [1] was 100 to 1000 nM.

As to `O=C(Nc1cccc(-c2nn3ccccc3c2-c2ccnc(Nc3ccc(N4CCCCC4)c(F)c3)n2)c1)c1c(F)cccc1F` [Example 147, 2,6-Difluoro-N-{3-[3-(2-{[3-fluoro-4-(1-piperidinyl)-phenyl]amino}-4-pyrimidinyl)pyrazolo[1,5-a]pyridin-2-yl]phenyl}benzamide], at ErbB2 or EGFR (setting [3]), the “Activity (Method): pIC50 class” value is reported as “+++ (A) (at least one pIC50 measurement of greater than 7 against either ErbB2 or EGFR)”. For the same compound, the IC50 in assay [1] is 100 to 1000 nM.

Turning to `N#Cc1cccc(Nc2nccc(-c3c(-c4cccc(NC(=O)c5c(F)cccc5F)c4)nn4ccccc34)n2)c1` [Example 30, N-[3-(3-{2-[(3-cyanophenyl)amino]-4-pyrimidinyl}pyrazolo[1,5-a]pyridin-2-yl)phenyl]-2,6-difluorobenzamide], the “Activity (Method): pIC50 class” value at ErbB2 or EGFR (setting [3]) was “+++ (A) (at least one pIC50 measurement of greater than 7 against either ErbB2 or EGFR)”. Also, the 50% inhibitory concentration (IC50) in assay [1] was below 100 nM.

Regarding `Cc1cccc(C(=O)Nc2cccc(-c3nn4ccccc4c3-c3ccnc(Nc4cccc(F)c4)n3)c2)c1Cl` [Example 70, 2-Chloro-N-[3-(3-{2-[(3-fluorophenyl)amino]-4-pyrimidinyl}pyrazolo[1,5-a]pyridin-2-yl)phenyl]-3-methylbenzamide], the “Activity (Method): pIC50 class” value at ErbB2 or EGFR (setting [2]) is on record as “++ (B) (at least one pIC50 measurement greater than 6 against either ErbB2 or EGFR but no measurement greater than pIC50 of 7)”. For the same compound, the concentration for half-maximal inhibition (IC50) in assay [1] lay within 100 to 1000 nM.

What is called IC50 is the concentration needed to halve the response being measured.
